One block for each molecule: values may come before it. The source made the active and inactive calls. No cut-off for these calls is given here.
Columns and labels:
[1] = tested on: A549; experiment: Antiproliferative activity against human A549 cells assessed as inhibition of cell viability at 40 uM incubated for 24 hrs by CCK-8 assay; assay type: functional, cell-based
[2] = tested on: NCI-H460; experiment: Antiproliferative activity against human H460 cells assessed as inhibition of cell viability at 40 uM incubated for 24 hrs by CCK-8 assay; assay type: functional, cell-based
[3] = tested on: NCI-H460; experiment: Antiproliferative activity against human H460 cells assessed as inhibition of cell viability incubated for 24 hrs by CCK-8 assay; assay type: functional, cell-based; settings: for IC50: NCI-H460, 24 h
[4] = tested on: A549; experiment: Antiproliferative activity against human A549 cells assessed as inhibition of cell viability incubated for 24 hrs by CCK-8 assay; assay type: functional, cell-based; settings: for IC50: A549, 24 h
[5] = tested on: A549; experiment: Inhibition of colony formation in human A549 cells at 20 uM incubated for 48 hrs and measured after 10 days culturing in normal media by Giemsa staining based inverted microscopy; assay type: functional, cell-based
[6] = tested on: NCI-H460; experiment: Inhibition of colony formation in human H460 cells at 20 uM incubated for 48 hrs and measured after 10 days culturing in normal media by Giemsa staining based inverted microscopy; assay type: functional, cell-based
[7] = tested on: NCI-H460; experiment: Induction of ROS generation in human H460 cells incubated for 24 hrs by DCFH-DA staining based fluorescence microscopy; assay type: functional, cell-based
[8] = tested on: A549; experiment: Induction of apoptosis in human A549 cells assessed as early apoptotic cells at 20 uM incubated for 24 hrs by Annexin V-FITC/propidium iodide staining based flow cytometric method (reference value: 0.3%); assay type: functional
[9] = tested on: NCI-H460; experiment: Downregulation of TOP3B protein expression in human H460 cells at 40 uM incubated for 24 hrs by western blot analysis; assay type: functional, cell-based
[10] = tested on: NCI-H460; experiment: Induction of apoptosis in human H460 cells assessed as early apoptotic cells at 40 uM incubated for 24 hrs by Annexin V-FITC/propidium iodide staining based flow cytometric method (reference value: 2.4%); assay type: functional
[11] = tested on: A549; experiment: Induction of apoptosis in human A549 cells assessed as late apoptotic cells at 40 uM incubated for 24 hrs by Annexin V-FITC/propidium iodide staining based flow cytometric method (reference value: 1.7%); assay type: functional
[12] = tested on: A549; experiment: Induction of ROS generation in human A549 cells incubated for 24 hrs by DCFH-DA staining based fluorescence microscopy; assay type: functional, cell-based
[13] = tested on: A549; experiment: Induction of apoptosis in human A549 cells assessed as live cells at 20 uM incubated for 24 hrs by Annexin V-FITC/propidium iodide staining based flow cytometric method (reference value: 95.6%); assay type: functional
[14] = tested on: A549; experiment: Antiproliferative activity against human A549 cells assessed as cell viability at 40 uM incubated for 24 hrs by CCK-8 assay; assay type: functional; settings: A549, 24 h, read-out: Activity
[15] = tested on: A549; experiment: Induction of apoptosis in human A549 cells assessed as early apoptotic cells at 40 uM incubated for 24 hrs by Annexin V-FITC/propidium iodide staining based flow cytometric method (reference value: 0.3%); assay type: functional
[16] = tested on: A549; experiment: Induction of apoptosis in human A549 cells assessed as live cells at 40 uM incubated for 24 hrs by Annexin V-FITC/propidium iodide staining based flow cytometric method (reference value: 95.6%); assay type: functional
[17] = tested on: NCI-H460; experiment: Downregulation of CDK6 mRNA expression in human H460 cells at 40 uM after 24 hrs by RT-qPCR analysis; assay type: functional, cell-based
[18] = tested on: NCI-H460; experiment: Induction of apoptosis in human H460 cells assessed as early apoptotic cells at 20 uM incubated for 24 hrs by Annexin V-FITC/propidium iodide staining based flow cytometric method (reference value: 2.4%); assay type: functional
[19] = tested on: A549; experiment: Induction of apoptosis in human A549 cells assessed as necrotic cell at 20 uM incubated for 24 hrs by Annexin V-FITC/propidium iodide staining based flow cytometric method (reference value: 2.4%); assay type: functional
[20] = tested on: NCI-H460; experiment: Downregulation of TOP3B mRNA expression in human H460 cells incubated for 24 hrs by RT-qPCR analysis; assay type: functional, cell-based
[21] = tested on: NCI-H460; experiment: Induction of apoptosis in human H460 cells assessed as late apoptotic cells at 40 uM incubated for 24 hrs by Annexin V-FITC/propidium iodide staining based flow cytometric method (reference value: 4.3%); assay type: functional
[22] = tested on: NCI-H460; experiment: Induction of apoptosis in human H460 cells assessed as necrotic cell at 20 uM incubated for 24 hrs by Annexin V-FITC/propidium iodide staining based flow cytometric method (reference value: 2.1%); assay type: functional
[23] = tested on: NCI-H460; experiment: Antiproliferative activity against human H460 cells assessed as cell viability at 40 uM incubated for 24 hrs by CCK-8 assay; assay type: functional; settings: NCI-H460, 24 h, read-out: Activity
[24] = tested on: NCI-H460; experiment: Induction of apoptosis in human H460 cells assessed as live cells at 20 uM incubated for 24 hrs by Annexin V-FITC/propidium iodide staining based flow cytometric method (reference value: 91.2%); assay type: functional
[25] = tested on: NCI-H460; experiment: Downregulation of Cyclin D1 mRNA expression in human H460 cells at 40 uM after 24 hrs by RT-qPCR analysis; assay type: functional, cell-based
[26] = tested on: NCI-H460; experiment: Downregulation of c-Myc protein expression level in human H460 cells at 40 uM incubated for 24 hrs by western blot analysis; assay type: functional, cell-based
[27] = tested on: A549; experiment: Induction of apoptosis in human A549 cells assessed as necrotic cell at 40 uM incubated for 24 hrs by Annexin V-FITC/propidium iodide staining based flow cytometric method (reference value: 2.4%); assay type: functional
[28] = tested on: A549; experiment: Induction of apoptosis in human A549 cells assessed as late apoptotic cells at 20 uM incubated for 24 hrs by Annexin V-FITC/propidium iodide staining based flow cytometric method (reference value: 1.7%); assay type: functional
[29] = tested on: NCI-H460; experiment: Downregulation of TOP2B mRNA expression in human H460 cells incubated for 24 hrs by RT-qPCR analysis; assay type: functional, cell-based
[30] = tested on: NCI-H460; experiment: Induction of apoptosis in human H460 cells assessed as late apoptotic cells at 20 uM incubated for 24 hrs by Annexin V-FITC/propidium iodide staining based flow cytometric method (reference value: 4.3%); assay type: functional
[31] = Cytotoxicity against mouse MFF cells assessed as inhibition of cell viability after 24 hrs; assay type: cell-based
[32] = tested on: NCI-H460; experiment: Induction of apoptosis in human H460 cells assessed as necrotic cell at 40 uM incubated for 24 hrs by Annexin V-FITC/propidium iodide staining based flow cytometric method (reference value: 2.1%); assay type: functional
[33] = tested on: NCI-H460; experiment: Cell cycle arrest in human H460 cells assessed as accumulation of cells at G1 phase at 40 uM incubated for 24 hrs by PI staining based flow cytometric analysis; assay type: functional
[34] = tested on: NCI-H460; experiment: Downregulation of c-Myc mRNA expression level in human H460 cells incubated for 24 hrs by RT-qPCR analysis; assay type: functional, cell-based
[35] = tested on: NCI-H460; experiment: Downregulation of TOP2B protein expression in human H460 cells at 40 uM incubated for 24 hrs by western blot analysis; assay type: functional, cell-based
[36] = tested on: NCI-H460; experiment: Induction of apoptosis in human H460 cells assessed as live cells at 40 uM incubated for 24 hrs by Annexin V-FITC/propidium iodide staining based flow cytometric method (reference value: 91.2%); assay type: functional
[37] = tested on: NCI-H460; experiment: Downregulation of CDK4 mRNA expression in human H460 cells at 40 uM after 24 hrs by RT-qPCR analysis; assay type: functional, cell-based

Compound: C=CCc1ccc(O)c(-c2cc(CC=C)ccc2OCCSCCCCN2C(=O)c3ccccc3C2=O)c1
Activity [1]: inactive | Activity [2]: inactive

IC50 [3]: > 80 µM | IC50 [4]: > 80 µM
Compound: C=CCc1ccc(O)c(-c2cc(CC=C)ccc2O)c1 [MAGNOLOL]
Activity [1]: inactive | Activity [2]: inactive | inhibition [5]: inactive | inhibition [6]: inactive

IC50 [3]: 38 µM | IC50 [4]: 41.6 µM
Compound: C=CCc1ccc(O)c(-c2cc(CC=C)ccc2OCC[S+]([O-])CCCCN2C(=O)c3ccccc3C2=O)c1 (configuration not stated)
Activity [7]: Dose-dependent effect | Activity [8]: 1.9% | inhibition [9]: Active | Activity [10]: 5.7% | Activity [11]: 34.5% | Activity [12]: Dose-dependent effect | Activity [13]: 83.2% | viability at 40 µM [14]: 51% | Activity [15]: 0.8% | Activity [16]: 56.7% | inhibition [17]: Active | Activity [18]: 6.8% | Activity [19]: 3% | inhibition [20]: Active | Activity [21]: 38.1% | Activity [22]: 7.9% | viability at 40 µM [23]: 48.4% | inhibition [3]: Dose-dependent effect | Activity [24]: 66.7% | inhibition [25]: Active | inhibition [4]: Dose-dependent effect | inhibition [26]: Active | Activity [27]: 8% | Activity [28]: 11.9% | inhibition [29]: Active | Activity [30]: 18.6% | Activity [31]: Non-Toxic | Activity [32]: 9.6% | inhibition [5]: Active | Activity [33]: Active | inhibition [34]: Active | inhibition [6]: Active | inhibition [35]: Active | Activity [36]: 46.6% | inhibition [37]: Active

Compound: C=CCc1ccc(O)c(-c2cc(CC=C)ccc2OCCS(=O)(=O)CCCCN2C(=O)c3ccccc3C2=O)c1
Activity [1]: inactive | Activity [2]: inactive
